Data on two molecules can be found in patent US20180272270A1, “AMINE COMPOUNDS FOR SELECTIVELY REMOVING HYDROGEN SULPHIDE” (BASF SE, priority 2015, published 2018).

A short description of the series: Dynamic viscosity of the amines (Anton Paar Stabinger SVM3000 viscometer). It counts as physicochemical.

In the case of `CC(C)(C)NCCOCCO` [TBAEE, 2-(2-tert-butylaminoethoxy)ethanol, reference compound], the Dynamic viscosity reads like this: (20 ° C.) 58.4 mPa · s; (60 ° C.) 6.9 mPa · s; (80 ° C.) 3.6 mPa · s.
With `CN(C)CCOCCNC(C)(C)C` [TBAEEDA, 2-(2-tert-butylaminoethoxy)ethyl-N,N-dimethylamine], the Dynamic viscosity by setting is: (20 ° C.) 5.4 mPa · s; (40 ° C.) 2.5 mPa · s; (60 ° C.) 1.6 mPa · s; (80 ° C.) 1.1 mPa · s.
